Laboratory results from US4198506A, “2-Carboxyalkyl-2,3-dihydro-6-mercapto-s-triazolo[4,3-b]-pyridazin-3-ones” (Bristol-Myers Company, priority 1979, dated 1980).
In brackets after ≈: the same amount, converted by molar mass. Several values for one entry are separate records, joined by “and”; a condition that tells them apart may be missing. Identical values can stand only once. Like-named read-outs stand apart in the source and are kept apart here.

Experiments:
S. aureus (sensitive) = assay: In vitro activity (geometric mean MIC, serial dilution); type: cell-based; conditions: Staphylococcus aureus, read-out: Geometric Mean MIC
[1] = test system: S. aureus penicillinase+); assay: as above; type: cell-based; conditions: Staphylococcus aureus; 13 strains; Mueller-Hinton agar, inoculum 10^4 dilution; MIC cutoff 200 mcg./ml.; read-out: Geometric Mean MIC
[2] = test system: S. aureus (Methicillin-R); assay: as above; type: cell-based; conditions: Staphylococcus aureus; 15 strains; Mueller-Hinton agar, inoculum 10^4 dilution; MIC cutoff 200 mcg./ml.
S. pyogenes = assay: as above; type: cell-based; conditions: Streptococcus pyogenes; 10 strains; Mueller-Hinton agar, inoculum 10^4 dilution; MIC cutoff 200 mcg./ml.
D. pneumoniae = assay: as above; type: cell-based; conditions: Streptococcus pneumoniae; 9 strains; Mueller-Hinton agar, inoculum 10^4 dilution; MIC cutoff 200 mcg./ml.
E. coli (sensitive) = assay: as above; type: cell-based; conditions: Escherichia coli, read-out: Geometric Mean MIC
[3] = test system: E. coli (Penicillinase +); assay: as above; type: cell-based; conditions: Escherichia coli, read-out: Geometric Mean MIC
Enterobacter (sensitive) = assay: as above; type: cell-based; conditions: 3 strains, Mueller-Hinton agar, inoculum 10^4 dilution, MIC cutoff 200 mcg./ml., read-out: Geometric Mean MIC
[4] = test system: Enterobacter (Cephalosporinase +); assay: as above; type: cell-based; conditions: 7 strains, Mueller-Hinton agar, inoculum 10^4 dilution, MIC cutoff 200 mcg./ml.
Proteus (indole-) = assay: as above; type: cell-based; conditions: read-out: Geometric Mean MIC
Proteus (indole +) = assay: as above; type: cell-based; conditions: read-out: Geometric Mean MIC
[5] = test system: Proteus (indole +, cephalosporinase +); assay: as above; type: cell-based; conditions: read-out: Geometric Mean MIC
Providencia sp. = assay: as above; type: cell-based; conditions: 5 strains, Mueller-Hinton agar, inoculum 10^4 dilution, MIC cutoff 200 mcg./ml., read-out: Geometric Mean MIC
Klebsiella sp. = assay: as above; type: cell-based; conditions: 12 strains, Mueller-Hinton agar, inoculum 10^4 dilution, MIC cutoff 200 mcg./ml., read-out: Geometric Mean MIC
S. marcescens = assay: as above; type: cell-based; conditions: Serratia marcescens, read-out: Geometric Mean MIC
E. coli Juhl = assay: In vivo activity (Mice, sc); conditions: several determinations listed; for ED50: Escherichia coli, read-out: PD50
Excerpt: (§1) |In vivo Activity of BB-[…] and Related Compounds (Mice, sc) | (PD50 (mgm./kg.)

S. aureus Smith = assay: In vivo activity (Mice, sc); conditions: Staphylococcus aureus, several determinations listed, read-out: PD50
Excerpt: as §1

E. coli = assay: In vitro antibacterial activity (Steers' agar dilution MIC); type: cell-based; conditions: Escherichia coli
Excerpt: (§2) In vitro Antibacterial Activity of BB-S493 Compared with
(§3) BB-S479 and Cefamandole (Determined by Steers' Agar Dilu-
(§4) tion Method on Mueller-Hinton Agar Plate)
(§5) In vitro antibacterial activity of BB-S 525 compared with
(§6) BB-S 479 and cefamandole (determined by Steers' agar dilution
(§7) method on Mueller-Hinton agar plate)

Kl. pneumoniae = assay: as above; type: cell-based; conditions: Klebsiella pneumoniae, table 4 (BB-S 525)
Excerpt: as §2, §3, §4, §5, §6, §7

S. aureus = assay: as above; type: cell-based; conditions: Staphylococcus aureus, table 4 (BB-S 525)
Excerpt: as §2, §3, §4, §5, §6, §7

Sal. typhosa = assay: as above; type: cell-based; conditions: table 4 (BB-S 525); Sal. typhosa
Excerpt: as §2, §3, §4, §5, §6, §7

Shig. flexneri = assay: as above; type: cell-based; conditions: Shigella flexneri; table 4 (BB-S 525); Shig. flexneri; read-out: MIC
Excerpt: as §2, §3, §4, §5, §6, §7

Shig. sonnei = assay: as above; type: cell-based; conditions: Shigella sonnei, table 4 (BB-S 525); Shig. sonnei
Excerpt: as §2, §3, §4, §5, §6, §7

St. faecalis = assay: as above; type: cell-based; conditions: Enterococcus faecalis, table 4 (BB-S 525); St. faecalis; read-out: MIC
Pr. vulgaris = assay: as above; type: cell-based; conditions: Proteus vulgaris, table 4 (BB-S 525), Pr. vulgaris, read-out: MIC
Pr. mirabilis = assay: as above; type: cell-based; conditions: Proteus mirabilis, table 4 (BB-S 525), Pr. mirabilis, read-out: MIC
Pr. morganii = assay: as above; type: cell-based; conditions: Morganella morganii, table 4 (BB-S 525), Pr. morganii, read-out: MIC
Pr. rettgeri = assay: as above; type: cell-based; conditions: Providencia rettgeri, table 4 (BB-S 525); Pr. rettgeri
Ps. aeruginosa = assay: as above; type: cell-based; conditions: table 4 (BB-S 525), Ps. aeruginosa
Shig. dysenteriae = assay: as above; type: cell-based; conditions: Shigella dysenteriae, table 4 (BB-S 525); Shig. dysenteriae
Serr. marcescens = assay: as above; type: cell-based; conditions: Serratia marcescens, table 4 (BB-S 525); Serr. marcescens; read-out: MIC
Enterob. cloacae = assay: as above; type: cell-based; conditions: table 4 (BB-S 525); Enterob. cloacae; read-out: MIC
Sal. enteritidis = assay: as above; type: cell-based; conditions: Salmonella enterica, table 4 (BB-S 525), Sal. enteritidis
B. anthracis = assay: microbe, parasite or virus in culture; type: cell-based; conditions: Bacillus anthracis, table 4 (BB-S 525); B. anthracis

## CNCc1cc(O)ccc1CC(=O)N[C@@H]1C(=O)N2C(C(=O)O)=C(CSc3ccc4nn(CC(=O)O)c(=O)n4n3)CS[C@H]12 [BB-S478, 7-(2-N-Methylaminomethyl-4-hydroxyphenylacetamido)-3-(2-N-carboxymethyl-2,3-dihydro-s-triazolo[4,5-b]pyridazin-3-on-6-ylthiomethyl)-3-cephem-4-carboxylic Acid]
S. aureus (sensitive)
  MIC: 0.4 µg/mL (≈ 0.65 µM)
[1]
  MIC: 1 µg/mL (≈ 1.62 µM)
[2]
  MIC: 50 µg/mL (≈ 81.2 µM)
S. pyogenes
  MIC: 0.04 µg/mL (≈ 0.065 µM)
D. pneumoniae
  MIC: 0.03 µg/mL (≈ 0.0487 µM)
E. coli (sensitive); 13 strains, Mueller-Hinton agar, inoculum 10^4 dilution, MIC cutoff 200 mcg./ml.
  MIC: 0.2 µg/mL (≈ 0.325 µM)
[3]
  MIC: 10 µg/mL (≈ 16.2 µM)
Enterobacter (sensitive)
  MIC: 0.8 µg/mL (≈ 1.3 µM)
[4]
  MIC: 2.6 µg/mL (≈ 4.22 µM)
Proteus (indole-)
  MIC: 0.4 µg/mL (≈ 0.65 µM)
Proteus (indole +)
  MIC: 0.3 µg/mL (≈ 0.487 µM)
[5]
  MIC: 7.3 µg/mL (≈ 11.9 µM)
Providencia sp.
  MIC: 4.8 µg/mL (≈ 7.8 µM)
Klebsiella sp.
  MIC: 0.6 µg/mL (≈ 0.975 µM)
S. marcescens
  MIC: 40 µg/mL (≈ 65 µM)
E. coli Juhl
  ED50: 0.08 mg/kg
S. aureus Smith
  ED50: 0.08 mg/kg

## CNCc1ccccc1CC(=O)N[C@@H]1C(=O)N2C(C(=O)O)=C(CSc3ccc4nn(CCC(=O)O)c(=O)n4n3)CS[C@H]12 [BB-S 525, 7-[o-(N-Methylaminomethyl)phenylacetamido]-3-[2-(2-carboxyethyl)-2,3-dihydro-s-triazolo[4,3-b]pyridazin-3-on-6-ylthiomethyl]-3-cephem-4-carboxylic acid]
E. coli; ATCC8739, table 4 (BB-S 525), E. coli ATCC 8739
  MIC: 6.3 µg/mL (≈ 10.3 µM)
E. coli; table 4 (BB-S 525), E. coli BX-1373, read-out: MIC
  MIC: 0.4 µg/mL (≈ 0.652 µM)
E. coli; table 4 (BB-S 525), E. coli Juhl, read-out: MIC
  MIC: 0.4 µg/mL (≈ 0.652 µM)
E. coli; table 4 (BB-S 525), E. coli NIHJ, read-out: MIC
  MIC: 0.2 µg/mL (≈ 0.326 µM)
E. coli; table 4 (BB-S 525), E. coli, strain not given, 1st line, read-out: MIC
  MIC: 0.2 µg/mL (≈ 0.326 µM)
E. coli; table 4 (BB-S 525), E. coli, strain not given, 2nd line, read-out: MIC
  MIC: 0.2 µg/mL (≈ 0.326 µM)
E. coli; table 4 (BB-S 525), E. coli, strain not given, 3rd line, read-out: MIC
  MIC: 6.3 µg/mL (≈ 10.3 µM)
Kl. pneumoniae; Kl. pneumoniae, 1st line
  MIC: 1.6 µg/mL (≈ 2.61 µM)
Kl. pneumoniae; Kl. pneumoniae, 2nd line
  MIC: 0.2 µg/mL (≈ 0.326 µM)
Kl. pneumoniae; Kl. pneumoniae, 3rd line
  MIC: 0.2 µg/mL (≈ 0.326 µM)
Kl. pneumoniae; Kl. pnuemoniae, 4th line
  MIC: 0.2 µg/mL (≈ 0.326 µM)
S. aureus; S. aureus (strain not given)
  MIC: 0.2 µg/mL (≈ 0.326 µM)
S. aureus; S. aureus BX-1633
  MIC: 0.8 µg/mL (≈ 1.3 µM)
S. aureus; S. aureus Smith
  MIC: 0.4 µg/mL (≈ 0.652 µM)
Sal. typhosa
  MIC: 0.2 µg/mL (≈ 0.326 µM)
Shig. flexneri
  MIC: 12.5 µg/mL (≈ 20.4 µM)
Shig. sonnei
  MIC: 0.1 µg/mL (≈ 0.163 µM)
St. faecalis
  MIC: > 100 µg/mL
Pr. vulgaris; 1st line
  MIC: 0.2 µg/mL (≈ 0.326 µM)
Pr. vulgaris; 2nd line
  MIC: 3.1 µg/mL (≈ 5.05 µM)
Pr. mirabilis; 1st line
  MIC: 0.4 µg/mL (≈ 0.652 µM)
Pr. mirabilis; 2nd line
  MIC: 0.2 µg/mL (≈ 0.326 µM)
Pr. morganii; 1st line
  MIC: > 100 µg/mL
Pr. morganii; 2nd line
  MIC: 0.2 µg/mL (≈ 0.326 µM)
Pr. rettgeri
  MIC: 0.8 µg/mL (≈ 1.3 µM)
Ps. aeruginosa; Pseudomonas aeruginosa, 1st line, read-out: MIC
  MIC: > 100 µg/mL
Ps. aeruginosa; 2nd line
  MIC: > 100 µg/mL
Shig. dysenteriae
  MIC: 0.1 µg/mL (≈ 0.163 µM)
Serr. marcescens
  MIC: 25 µg/mL (≈ 40.7 µM)
Enterob. cloacae
  MIC: 3.1 µg/mL (≈ 5.05 µM)
Sal. enteritidis
  MIC: 0.2 µg/mL (≈ 0.326 µM)
B. anthracis
  MIC: 0.2 µg/mL (≈ 0.326 µM)

## NCc1ccccc1CC(=O)N[C@@H]1C(=O)N2C(C(=O)O)=C(CSc3nnnn3CC(=O)O)CS[C@H]12 [BL-S786, reference compound]
S. aureus (sensitive); 4 strains, Mueller-Hinton agar, inoculum 10^4 dilution, MIC cutoff 200 mcg./ml.
  MIC: 1.3 µg/mL (≈ 2.5 µM)
[1]
  MIC: 3 µg/mL (≈ 5.77 µM)
[2]
  MIC: 48 µg/mL (≈ 92.4 µM)
S. pyogenes
  MIC: 0.2 µg/mL (≈ 0.385 µM)
D. pneumoniae
  MIC: 0.08 µg/mL (≈ 0.154 µM)
E. coli (sensitive)
  MIC: 0.4 µg/mL (≈ 0.77 µM)
[3]; 7 strains, Mueller-Hinton agar, inoculum 10^4 dilution, MIC cutoff 200 mcg./ml.
  MIC: 9.3 µg/mL (≈ 17.9 µM)
Enterobacter (sensitive)
  MIC: 1.3 µg/mL (≈ 2.5 µM)
[4]
  MIC: 7.7 µg/mL (≈ 14.8 µM)
Proteus (indole-)
  MIC: 0.9 µg/mL (≈ 1.73 µM)
Proteus (indole +)
  MIC: 0.7 µg/mL (≈ 1.35 µM)
[5]; 5 strains, Mueller-Hinton agar, inoculum 10^4 dilution, MIC cutoff 200 mcg./ml.
  MIC: 29 µg/mL (≈ 55.8 µM)
Providencia sp.
  MIC: 1.4 µg/mL (≈ 2.69 µM)
Klebsiella sp.
  MIC: 0.8 µg/mL (≈ 1.54 µM)
S. marcescens; 16 strains, Mueller-Hinton agar, inoculum 10^4 dilution, MIC cutoff 200 mcg./ml.
  MIC: 180 µg/mL (≈ 346 µM)
E. coli Juhl
  ED50: 0.43 mg/kg
  PD50: 0.55 mgm./kg. and 0.46 mgm./kg. and 0.39 mgm./kg.
